Source: ChEMBL document CHEMBL3102790, “Synthesis of quercetin glycosides and their melanogenesis stimulatory activity in B16 melanoma cells” (Bioorg Med Chem, 2014)

What was measured:
[1] = Cytotoxicity against mouse B16F10 cells assessed as cell viability at 200 uM by MTT assay; assay type: cell-based, B16-F10; details: read-out: Activity
[2] = target: T1, Tyrosinase (Agaricus bisporus) (UniProt O42713); assay: Induction of mushroom tyrosinase activity using L-tyrosine as substrate at 50 uM after 30 mins
T1 sequence (whole entry): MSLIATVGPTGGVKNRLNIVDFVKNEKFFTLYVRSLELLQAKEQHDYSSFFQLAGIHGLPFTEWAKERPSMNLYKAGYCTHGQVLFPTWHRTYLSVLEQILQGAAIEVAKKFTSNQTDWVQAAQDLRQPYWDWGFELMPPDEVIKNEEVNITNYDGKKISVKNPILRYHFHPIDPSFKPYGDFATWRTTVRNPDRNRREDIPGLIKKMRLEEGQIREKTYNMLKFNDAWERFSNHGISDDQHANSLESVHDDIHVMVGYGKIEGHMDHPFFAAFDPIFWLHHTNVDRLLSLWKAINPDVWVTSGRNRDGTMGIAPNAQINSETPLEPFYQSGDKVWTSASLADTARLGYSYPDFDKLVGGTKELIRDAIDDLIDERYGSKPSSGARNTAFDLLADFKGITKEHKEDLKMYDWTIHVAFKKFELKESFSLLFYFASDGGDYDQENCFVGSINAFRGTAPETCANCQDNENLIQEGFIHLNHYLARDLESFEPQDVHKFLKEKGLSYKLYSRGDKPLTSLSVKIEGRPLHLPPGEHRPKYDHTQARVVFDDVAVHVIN

B16-F10 [3] = assay: Induction of melanogenesis in mouse B16F10 cells assessed as intracellular melanin level at 100 uM after 72 hrs; assay type: functional
B16-F10 [4] = assay: Induction of melanogenesis in mouse B16F10 cells assessed as intracellular melanin level after 72 hrs; assay type: functional, cell-based
[5] = Cytotoxicity against mouse B16F10 cells assessed as cell viability at 10 uM by MTT assay; assay type: cell-based, B16-F10; details: read-out: Activity
[6] = target: T1, Tyrosinase (Agaricus bisporus); assay: Induction of mushroom tyrosinase activity using L-DOPA as substrate at 200 uM after 30 mins
[7] = target: T1, Tyrosinase (Agaricus bisporus); assay: Induction of mushroom tyrosinase activity using L-DOPA as substrate at 50 uM after 30 mins
[8] = target: T1, Tyrosinase (Agaricus bisporus); assay: Induction of mushroom tyrosinase activity using L-tyrosine as substrate at 100 uM after 30 mins
[9] = Cytotoxicity against mouse B16F10 cells assessed as cell viability at 100 uM by MTT assay; assay type: cell-based, B16-F10; details: read-out: Activity
[10] = target: T1, Tyrosinase (Agaricus bisporus); assay: Induction of mushroom tyrosinase activity using L-tyrosine as substrate at 200 uM after 30 mins
B16-F10 [11] = assay: Induction of melanogenesis in mouse B16F10 cells assessed as intracellular melanin level at 10 uM after 72 hrs; assay type: functional
B16-F10 [12] = assay: Induction of melanogenesis in mouse B16F10 cells assessed as intracellular melanin level at 200 uM after 72 hrs; assay type: functional
[13] = target: T1, Tyrosinase (Agaricus bisporus); assay: Induction of mushroom tyrosinase activity using L-DOPA as substrate at 100 uM after 30 mins
B16-F10 [14] = assay: Induction of melanogenesis in mouse B16F10 cells assessed as intracellular melanin level at 250 uM after 72 hrs; assay type: functional
[15] = Cytotoxicity against mouse B16F10 cells assessed as cell viability at 125 uM by MTT assay; assay type: cell-based, B16-F10; details: read-out: Activity
B16-F10 [16] = assay: Induction of melanogenesis in mouse B16F10 cells assessed as intracellular melanin level at 125 uM after 72 hrs; assay type: functional
[17] = Cytotoxicity against mouse B16F10 cells assessed as cell viability at 250 uM by MTT assay; assay type: cell-based, B16-F10; details: read-out: Activity
[18] = Cytotoxicity against mouse B16F10 cells assessed as cell viability at 500 uM by MTT assay; assay type: cell-based, B16-F10; details: read-out: Activity
B16-F10 [19] = assay: Induction of melanogenesis in mouse B16F10 cells assessed as intracellular melanin level at 500 uM after 72 hrs; assay type: functional

Compound	viability at 200 µM [1]	Activity [2]	Activity (B16-F10 [3])	Activity (B16-F10 [4])	viability at 10 µM [5]	Activity [6]	Activity [7]	Activity [8]	viability at 100 µM [9]	Activity [10]	Activity (B16-F10 [11])	Activity (B16-F10 [12])	Activity [13]	Activity (B16-F10 [14])	viability at 125 µM [15]	Activity (B16-F10 [16])	viability at 250 µM [17]	viability at 500 µM [18]	Activity (B16-F10 [19])
O=c1c(O[C@@H]2O[C@H](CO)[C@@H](O[C@@H]3O[C@H](CO)[C@@H](O)[C@H](O)[C@H]3O)[C@H](O)[C@H]2O)c(-c2ccc(O)c(O)c2)oc2cc(O)cc(O)c12	81.1%	97.5%	126.8%	Dose-dependent effect	99.6%	112%	103%	95%	93.2%	82.2%	102.6%	176%	107%						
O=c1c(O[C@@H]2O[C@H](CO)[C@@H](O[C@@H]3O[C@H](CO)[C@@H](O)[C@H](O)[C@H]3O)[C@H](O)[C@H]2O)c(-c2ccc(O)c(O)c2)oc2cc(O[C@@H]3O[C@H](CO)[C@@H](O)[C@H](O)[C@H]3O)cc(O)c12	98.7%	103%	78.9%		95.1%	104%	102%	102%	113%	104%	91.1%	119%	104%						
O=c1c(O[C@@H]2O[C@H](CO)[C@@H](O)[C@H](O)[C@H]2O)c(-c2ccc(O)c(O)c2)oc2cc(O)cc(O)c12 [ISOQUERCETIN]	68.4%	112%	157.1%	Dose-dependent effect	105%	116%	107%	96.2%	80.9%	104%	116.3%	206.9%	110%						
O=c1c(O[C@@H]2O[C@H](CO)[C@@H](O[C@@H]3O[C@H](CO)[C@@H](O)[C@H](O)[C@H]3O)[C@H](O)[C@H]2O)c(-c2ccc(O)c(O)c2)oc2cc(O[C@@H]3O[C@H](CO)[C@@H](O[C@@H]4O[C@H](CO)[C@@H](O)[C@H](O)[C@H]4O)[C@H](O)[C@H]3O)cc(O)c12	95.2%	104%	97.8%		105%	103%	101%	104%	93.9%	101%	80.3%	102.6%	102%						
O=c1c(O[C@@H]2O[C@H](CO)[C@@H](O[C@@H]3O[C@H](CO)[C@@H](O)[C@H](O)[C@H]3O)[C@H](O)[C@H]2O)c(-c2ccc(O[C@@H]3O[C@H](CO)[C@@H](O[C@@H]4O[C@H](CO)[C@@H](O)[C@H](O)[C@H]4O)[C@H](O)[C@H]3O)c(O)c2)oc2cc(O)cc(O)c12	99.7%	100%	84.77%		107%	108%	107%	95%	106%	97.6%	79.7%	99.7%	103%						
O=c1c(O[C@@H]2O[C@H](CO)[C@@H](O)[C@H](O)[C@H]2O)c(-c2ccc(O[C@@H]3O[C@H](CO)[C@@H](O[C@@H]4O[C@H](CO)[C@@H](O)[C@H](O)[C@H]4O)[C@H](O)[C@H]3O)c(O)c2)oc2cc(O)cc(O)c12	106%	88.9%	90.9%		97.8%	109%	103%	85.2%	107%	82.4%	96.8%	96.3%	105%						
Cn1c(=O)c2nc[nH]c2n(C)c1=O.O [THEOPHYLLINE]														131.7%	95.5%	127.6%	94.4%	91.4%	166.8%
O=c1c(O[C@@H]2O[C@H](CO)[C@@H](O)[C@H](O)[C@H]2O)c(-c2ccc(O[C@@H]3O[C@H](CO)[C@@H](O)[C@H](O)[C@H]3O)c(O)c2)oc2cc(O)cc(O)c12	77.4%	101%	90.4%		107%	99.3%	102%	98.8%	104%	94.3%	89.7%	92.6%	99.3%						
O=c1c(O[C@@H]2O[C@H](CO)[C@@H](O)[C@H](O)[C@H]2O)c(-c2ccc(O)c(O)c2)oc2cc(O[C@@H]3O[C@H](CO)[C@@H](O[C@@H]4O[C@H](CO)[C@@H](O)[C@H](O)[C@H]4O)[C@H](O)[C@H]3O)cc(O)c12	111%	95.2%	78.9%		95.1%	110%	108%	89%	113%	85.6%	91.1%	83.8%	105%						
O=c1c(O[C@@H]2O[C@H](CO)[C@@H](O[C@@H]3O[C@H](CO)[C@@H](O)[C@H](O)[C@H]3O)[C@H](O)[C@H]2O)c(-c2ccc(O[C@@H]3O[C@H](CO)[C@@H](O)[C@H](O)[C@H]3O)c(O)c2)oc2cc(O)cc(O)c12	74.8%	105%	151.5%	Dose-dependent effect	90%	101%	101%	95.9%	86.8%	106%	137%	190.5%	103%						
O=c1c(O[C@@H]2O[C@H](CO)[C@@H](O)[C@H](O)[C@H]2O)c(-c2ccc(O)c(O)c2)oc2cc(O[C@@H]3O[C@H](CO)[C@@H](O)[C@H](O)[C@H]3O)cc(O)c12	114%	92.8%	113.9%		97.7%	106%	103%	85.5%	78%	86.7%	85%	86.5%	103%						
